Like-named read-outs stand apart in the source and are kept apart here.
Assays:
HCT-116 = test: cells; conditions: Homo sapiens, HCT-116, 48 h
SK-MEL-2 = test: cells; conditions: Homo sapiens, SK-MEL-2, 48 h
IGROV1 [1] = tested on: IGROV1
HOP-92 = test: cells; conditions: Homo sapiens, HOP-92, 48 h
IGROV1 [2] = test: cells; conditions: Homo sapiens, IGROV-1, 48 h
OVCAR-4 = test: cells; conditions: Homo sapiens, OVCAR-4, 48 h
HOP-62 = test: cells; conditions: Homo sapiens, HOP-62, 48 h
MDA-MB-435 = test: cells; conditions: Homo sapiens, MDA-MB-435, 48 h
KM12 [3] = tested on: KM12
788-0 = conditions: 788-0
SF-539 = test: cells; conditions: Homo sapiens, SF-539, 48 h
KM12 [4] = test: cells; conditions: Homo sapiens, KM12, 48 h
T-47D = test: cells; conditions: Homo sapiens, T47D, 48 h
A498 = test: cells; conditions: Homo sapiens, A498, 48 h
SK-OV-3 = test: cells; conditions: Homo sapiens, SK-OV-3, 48 h
[5] = Log10 Concentration −4.0, Molar
[6] = Log10 Concentration −5.0, Molar
[7] = Log10 Concentration −6.0, Molar
[8] = Log10 Concentration −7.0, Molar
[9] = Log10 Concentration −8.0, Molar

`CCOC(=O)C[C@@H]1C(O[Si](C)(C)C(C)(C)C)[C@H](n2cnc3c(NC(=O)Nc4ccccc4)ncnc32)O[C@@H]1CNC(=O)NC` (stereo partly drawn) [Compound 10] was tested, and the TGI (A549/ATCC; 48 h) was 1.92E−5 Molar, the “Percent Growth” value (A549/ATCC; [5]) was −58% and the “Percent Growth” value (A549/ATCC; [6]) was 23%. The “Percent Growth” value (A549/ATCC; [7]) was 94%, the “Percent Growth” value (A549/ATCC; [8]) was 103% and the “Percent Growth” value (A549/ATCC; [9]) was 102%. For the same molecule, the GI50 (HCT-116) was 3.2 µM, the CC50 (HCT-116; read-out: LC50) was 45.6 µM and the TGI (RPMI-8226; 48 h) was 4.57E−6 Molar. For the same molecule, the “Percent Growth” value (RPMI-8226; [5]) was −57%, the “Percent Growth” value (RPMI-8226; [6]) was −27% and the “Percent Growth” value (RPMI-8226; [7]) was 53%. The “Percent Growth” value (RPMI-8226; [8]) was 75%, the “Percent Growth” value (RPMI-8226; [9]) was 77% and the TGI (OVCAR-3; 48 h) was 1.72E−5 Molar. For the same molecule, the “Percent Growth” value (OVCAR-3; [5]) was −53%, the “Percent Growth” value (OVCAR-3; [6]) was 16% and the “Percent Growth” value (OVCAR-3; [7]) was 116%. The “Percent Growth” value (OVCAR-3; [8]) was 115%, the “Percent Growth” value (OVCAR-3; [9]) was 114% and the GI50 (SK-MEL-2) was 5.42 µM. The CC50 (SK-MEL-2; read-out: LC50) was over 100 µM, the TGI (MALME-3M; 48 h) was over 1.00E−4 Molar and the “Percent Growth” value (MALME-3M; [5]) was 17%. The “Percent Growth” value (MALME-3M; [6]) was 50%, the “Percent Growth” value (MALME-3M; [7]) was 92% and the “Percent Growth” value (MALME-3M; [8]) was 95%. The “Percent Growth” value (MALME-3M; [9]) was 104%, the TGI (IGROV1 [1]; 48 h) was 1.80E−5 Molar and the “Percent Growth” value (IGROV1 [1]; [5]) was −58%. The “Percent Growth” value (IGROV1 [1]; [6]) was 20%, the “Percent Growth” value (IGROV1 [1]; [7]) was 93% and the “Percent Growth” value (IGROV1 [1]; [8]) was 94%. The “Percent Growth” value (IGROV1 [1]; [9]) was 94%, the GI50 (HOP-92) was under 0.01 µM and the CC50 (HOP-92; read-out: LC50) was 41.2 µM. The TGI (HT29; 48 h) was over 1.00E−4 Molar, the “Percent Growth” value (HT29; [5]) was 3% and the “Percent Growth” value (HT29; [6]) was 17%. For the same molecule, the “Percent Growth” value (HT29; [7]) was 104%, the “Percent Growth” value (HT29; [8]) was 105% and the “Percent Growth” value (HT29; [9]) was 104%. It also gave a GI50 (IGROV1 [2]) of 3.85 µM, a CC50 (IGROV1 [2]; read-out: LC50) of 79.2 µM and a GI50 (OVCAR-4) of 12.3 µM. For the same molecule, the CC50 (OVCAR-4; read-out: LC50) was over 100 µM, the GI50 (HOP-62) was 8.96 µM and the CC50 (HOP-62; read-out: LC50) was 73.1 µM. For the same molecule, the GI50 (MDA-MB-435) was 6.21 µM, the CC50 (MDA-MB-435; read-out: LC50) was over 100 µM and the TGI (KM12 [3]; 48 h) was 2.09E−5 Molar. The “Percent Growth” value (KM12 [3]; [5]) was −28%, the “Percent Growth” value (KM12 [3]; [6]) was 13% and the “Percent Growth” value (KM12 [3]; [7]) was 105%. The “Percent Growth” value (KM12 [3]; [8]) was 112%, the “Percent Growth” value (KM12 [3]; [9]) was 107% and the TGI (MCF7; 48 h) was 4.51E−5 Molar. The “Percent Growth” value (MCF7; [5]) was −8%, the “Percent Growth” value (MCF7; [6]) was 16% and the “Percent Growth” value (MCF7; [7]) was 89%. For the same molecule, the “Percent Growth” value (MCF7; [8]) was 91%, the “Percent Growth” value (MCF7; [9]) was 96% and the TGI (788-0; 48 h) was 5.21E−8 Molar. The “Percent Growth” value (788-0; [5]) was −97%, the “Percent Growth” value (788-0; [6]) was −34% and the “Percent Growth” value (788-0; [7]) was 86%. For the same molecule, the “Percent Growth” value (788-0; [8]) was 83%, the “Percent Growth” value (788-0; [9]) was 92% and the GI50 (SF-539) was 5.19 µM. For the same molecule, the CC50 (SF-539; read-out: LC50) was over 100 µM, the GI50 (KM12 [4]) was 3.95 µM and the CC50 (KM12 [4]; read-out: LC50) was over 100 µM. For the same molecule, the GI50 (T-47D) was 2.55 µM, the CC50 (T-47D; read-out: LC50) was over 100 µM and the GI50 (A498) was 3.34 µM. For the same molecule, the CC50 (A498; read-out: LC50) was over 100 µM, the GI50 (SK-OV-3) was 21 µM and the CC50 (SK-OV-3; read-out: LC50) was over 100 µM. For the same molecule, the TGI (NCI-H522; 48 h) was 8.57E−5 Molar, the “Percent Growth” value (NCI-H522; [5]) was −2% and the “Percent Growth” value (NCI-H522; [6]) was 32%. The “Percent Growth” value (NCI-H522; [7]) was 83%, the “Percent Growth” value (NCI-H522; [8]) was 85% and the “Percent Growth” value (NCI-H522; [9]) was 89%. The TGI (SF-268; 48 h) was 2.70E−5 Molar, the “Percent Growth” value (SF-268; [5]) was −53% and the “Percent Growth” value (SF-268; [6]) was 40%. For the same molecule, the “Percent Growth” value (SF-268; [7]) was 93%, the “Percent Growth” value (SF-268; [8]) was 103% and the “Percent Growth” value (SF-268; [9]) was 102%. The TGI (DU-145; 48 h) was 1.94E−5 Molar, the “Percent Growth” value (DU-145; [5]) was −59% and the “Percent Growth” value (DU-145; [6]) was 24%. The “Percent Growth” value (DU-145; [7]) was 110%, the “Percent Growth” value (DU-145; [8]) was 123% and the “Percent Growth” value (DU-145; [9]) was 110%. The TGI (BT-549; 48 h) was over 1.00E−4 Molar, the “Percent Growth” value (BT-549; [5]) was 51% and the “Percent Growth” value (BT-549; [6]) was 67%. For the same molecule, the “Percent Growth” value (BT-549; [7]) was 110%, the “Percent Growth” value (BT-549; [8]) was 109% and the “Percent Growth” value (BT-549; [9]) was 104%. For the same molecule, the TGI (SF-295; 48 h) was over 1.00E−4 Molar, the “Percent Growth” value (SF-295; [5]) was 24% and the “Percent Growth” value (SF-295; [6]) was 38%. For the same molecule, the “Percent Growth” value (SF-295; [7]) was 88%, the “Percent Growth” value (SF-295; [8]) was 91% and the “Percent Growth” value (SF-295; [9]) was 91%.

Reference: US20100152434A1, “Protein Kinase-binding Nucleosides and Associated Methods” (priority 2007, published 2010)
